In patent US12636271B2, “Combination comprising N-acetyl-L-cysteine and its use” (IASOMAI AB, priority 2011, dated 2026):

Tests used:
HL60 cells = test: Antioxidant effect against menadione oxidative stimulus, CM-H2DCFDA fluorescence; assay type: cell-based, human; settings: concentrations as in FIGS. 5-7
K562 cells = test: as above; assay type: cell-based, human; settings: 0.2 mM menadione, 0.4 mM NAC, 0.2 mM SeMet, 2 mM Mel (FIG. 4)
Protocol: The human lymphoblastoid HL60 and the proerythoblastoid K562 cell lines were used, grown at 37° C. in RPMI 1640 medium (Invitrogen, Gibco, Milano, Italy), supplemented with 10% fetal bovine serum, 5 μg/ml penicillin, 5 μg/ml streptomycin, 2 mM glutamine, and routinely subcultured three times a week. Cells were treated either with menadione alone (control), with NAC only, with NAC+Se-methionine (SeMet), with NAC+Mel, or with NAC+SeMet+Mel. In cases of SeMet supplementation, such supplementation was performed two days before experiments, by using a SeMet solution in buffer (concentrations as indicated in description of FIGS. 4-7). […]
The effect of NAC, Mel, SeMet and of a combination of these substances in protecting the cells against an oxidative stimulus was detected by using the fluorescent probe 5-(and-6)-chloromethyl-2′,7′-dichlorodihydrofluorescein diacetate, acetyl ester (CM-H2DCFDA) (Invitrogen, Molecular Probes). […] The increase in hydroperoxides (mainly H2O2) within the cell is thus monitored by increase in fluorescence. […]
Cells were counted, and care was taken to keep the ratio between cells and the fluorescent probe constant. […] Two μ1 of a solution of CM-H2DCFDA in DMSO were then added and the fluorescence intensity read versus time. […] During intensity readings, samples were subjected to continuous mild stirring. […]

[1] = tested on: patients suffering from varying kinds of anxiety; test: Anxiety trial, rated pain intensity before and after treatment; assay type: in vivo, human; settings: n = 20
From the text: In a method in accordance with embodiments of this disclosure a medical product comprising NAC, SeMet and Mel in accordance with embodiments was given to a plurality of groups of patients in the treatment of anxiety. The method of treating an anxiety disorder comprises administering to a patient in need thereof, a medical product consisting of one or more excipients and active agents consisting of (i) N-acetyl-L-cysteine; (ii) selenium in the form of selenomethionine; and (iii) melatonin and/or physiologically acceptable salts thereof.
(§1) In a trial the NAC, SeMet and Mel medical product, herein also called NAC-factor 3, was administered to the groups of patients in a set-up to compare the anxiolytic effect of placebo, NAC and the medical product consisting of NAC, SeMet and Mel in anxiolysis. The groups of patients were ordered according to the following different causes of anxiety: Sporadic anxiety (i.e. healthy patients) (SA), Social phobia (SP), Agoraphobia (AP), Panic disorder (PD), Generalized anxiety disorder (GAD), Obsessive-compulsive disorders (OCD), and Posttraumatic stress disorder (PTSD).
(§2) The patients rated their experienced intensity of pain from the anxiety before and after being exposed to medication with one of placebo, NAC and the medical product consisting of NAC, SeMet and Mel (in short NACSeMel), respectively. The subjective pain-intensity was rated by the patients using a 5 graded verbal rating scale ranging from None/Ignorable=0, Slight=1, Moderate=2, Great=3, Excruciating=4, where the corresponding numbers 0-4 are used to illustrate the responses in accompanying graphs.
(§3) In studying the results of the rating, the change in rating that the group delivered was expressed as a measure of the group's relative position RP in order to assess whether there was a systematic change in position on the rating scale. The relative position, i.e. the change in rating is negative if the rating indicates less pain intensity after exposure to treatment compared to before treatment, and positive if the rating indicates higher pain intensity after exposure to treatment. A range of values for the relative position RP was calculated for a 95% confidence interval CI.

[2] = tested on: patients suffering from generalized anxiety disorder; test: as above; assay type: in vivo, human; settings: n = 8
Protocol: as §1, §2, §3
(§4) The corresponding treatment design as described above was used with patients rating the pain intensity for specific causes of anxiety, viz. Recurrent sporadic social anxiety, Social Phobia/Agoraphobia, Panic disorder, Generalized anxiety disorder, Obsessive compulsive disorder and Posttraumatic stress disorder. The results are presented in the following Table 3 and in FIG. 11-FIG. 16.

[3] = tested on: patients suffering from obsessive compulsive disorder; test: as above; assay type: in vivo, human; settings: n = 7
Protocol: as §1, §2, §3, §4

[4] = tested on: patients suffering from panic disorder; test: as above; assay type: in vivo, human; settings: n = 7
Protocol: as §1, §2, §3, §4

[5] = tested on: patients suffering from posttraumatic stress disorder; test: as above; assay type: in vivo, human; settings: n = 5
Protocol: as §1, §2, §3, §4

[6] = tested on: patients suffering from recurrent sporadic social anxiety; test: as above; assay type: in vivo, human; settings: n = 12
Protocol: as §1, §2, §3, §4

[7] = tested on: patients suffering from social phobia/agoraphobia; test: as above; assay type: in vivo, human; settings: n = 6
Protocol: as §1, §2, §3, §4

[8] = tested on: patients suffering from sporadic insomnia; test: Sporadic insomnia trial, rated intensity before and after treatment; assay type: in vivo, human; settings: group of 24 patients
[9] = tested on: patients suffering from fatigue; test: Fatigue trial, rated intensity before and after treatment; assay type: in vivo, human; settings: group of 20 patients
From the text: In a method, conducted in a similar manner to that described in the previous Examples 6 and 7, and in accordance with embodiments of this disclosure a medical product comprising NAC, SeMet and Mel in accordance with embodiments was given to a plurality of groups of patients in the treatment of fatigue. The method of treating fatigue comprises administering to a patient in need thereof, a medical product consisting of one or more excipients and active agents consisting of (i) N-acetyl-L-cysteine; (ii) selenium in the form of selenomethionine; and (iii) melatonin and/or physiologically acceptable salts thereof. Fatigue may be related and due to anxiety, and/or to sporadic insomnia or have other independent causes. Fatigue is defined as a state of tiredness that remain despite rest or sleep, and that tend to impair cognitive and/or physical ability and performance.
In a trial the NAC, SeMet and Mel medical product, herein also called NAC-factor 3, was administered to a group of patients in a set-up to compare the effect of placebo, NAC and the medical product consisting of NAC, SeMet and Mel in treatment of fatigue.
as §2, with “fatigue” for “pain from the anxiety”, “intensity” for “pain-intensity”
as §3, with “less” for “less pain”, “higher” for “higher pain”

[10] = negative = less intensity after treatment

Structure (SMILES): CC(=O)N[C@@H](CS)C(=O)O [NAC, N-acetyl-L-cysteine]
- oxidative response (slope of DCFDA fluorescence intensity increase) after menadione (HL60 cells): relevant reduction in the kinetics of this intensity increase
- oxidative response (slope of DCFDA fluorescence intensity increase) after menadione (K562 cells): relevant reduction in the kinetics of this intensity increase
- number of patients that rated higher pain intensity after treatment [1]: 5 patients
- number of patients that rated lower pain intensity after treatment [1]: 9 patients
- patients that rated higher pain intensity after treatment [1]: 25%
- patients that rated lower pain intensity after treatment [1]: 40%
- patients that rated unchanged level [1]: 35%
- number of patients that rated lower [2]: 7 patients
- number of patients that rated unchanged level [2]: 1 patients
- relative position RP [2]: RP −0.81
- number of patients that rated higher [3]: 1 patients
- number of patients that rated lower [3]: 4 patients
- number of patients that rated unchanged level [3]: 2 patients
- relative position RP [3]: RP −0.27
- number of patients that rated lower [4]: 3 patients
- number of patients that rated unchanged level [4]: 4 patients
- relative position RP [4]: RP −0.35
- number of patients that rated lower [5]: 3 patients
- number of patients that rated unchanged level [5]: 2 patients
- relative position RP [5]: RP −0.60
- number of patients that rated lower [6]: 9 patients
- number of patients that rated unchanged level [6]: 2 patients
- relative position RP [6]: RP −0.46
- number of patients that rated lower [7]: ↓3, ~3 patients
- number of patients that rated unchanged level [7]: ↓3, ~3 patients
- relative position RP [7]: RP −0.31
- number of patients that rated lower sporadic insomnia [8]: 15 patients
- number of patients that rated unchanged intensity [8]: 9 patients
- patients that rated lower sporadic insomnia [8]: 62%
- patients that rated unchanged intensity [8]: 38%
- relative position RP [8, 10]: −0.37 (95% CI −0.49 to −0.25)
- number of patients that rated increased level of fatigue [9]: 3 patients
- number of patients that rated lower fatigue [9]: 9 patients
- number of patients that rated unchanged intensity of fatigue [9]: 8 patients
- patients that rated increased level of fatigue [9]: 15%
- patients that rated lower fatigue [9]: 45%
- patients that rated unchanged intensity of fatigue [9]: 40%
- relative position RP [9, 10]: −0.26 (95% CI −0.49 to −0.03)

Structure (SMILES): C[Se]CC[C@H](N)C(=O)O [SeMet, selenomethionine]
- oxidative response (slope of DCFDA fluorescence intensity increase) after menadione (HL60 cells): unfavorable pro-oxidant effect

Structure (SMILES): COc1ccc2[nH]cc(CCNC(C)=O)c2c1 [Mel, melatonin]
- oxidative response (slope of DCFDA fluorescence intensity increase) after menadione (HL60 cells): unfavorable pro-oxidant effect
